Results published in PubChem BioAssay (NCI).
Several values for one entry are separate records, joined by “and”; a condition that tells them apart may be missing. Identical values can stand only once.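 How tested: cells in 96-well plates exposed to compound for 48 hours at five concentrations. At the GI50, growth is halved. TGI: concentration producing complete growth inhibition.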

What was measured:
Experiment in all cases: NCI-60 cell line screen, 48 h
[1] = test system: ACHN renal
[2] = test system: COLO 205 colon
[3] = test system: HOP-62 NSCLC
[4] = test system: NCI-H522 lung
[5] = test system: NCI/ADR-RES ovarian
[6] = test system: SF-268 CNS
[7] = test system: SF-539 CNS
[8] = test system: SN12C renal
[9] = test system: SNB-75 CNS
[10] = test system: UACC-257 melanoma

Compound | GI50 [1] | TGI [1] | GI50 [2] [µM] | TGI [2] | GI50 [3] | TGI [3] | GI50 [4] [µM] | TGI [4] | GI50 [5] [µM] | TGI [5] [µM] | GI50 [6] [µM] | TGI [6] | GI50 [7] | TGI [7] | GI50 [8] | TGI [8] | GI50 [9] [µM] | TGI [9] | GI50 [10] | TGI [10]
Cn1ccnc1C(=O)/C=C/c1ccc(C(=O)Nc2ccccc2O)cc1 | 1.99 µM | 4.01 µM | 2.51 | 5.15 µM | 4.6 µM | 15.1 µM | 1.86 | 5.47 µM | 2.86 | 22.6 | 2.39 | 7.2 µM | 1.56 µM | 3.5 µM | 2.79 µM | 10.1 µM | 0.918 | 8.58 µM | 2.51 µM | 13.3 µM
O=C(Nc1cccc([N+](=O)[O-])c1)c1ccc2ccccc2c1O | 12.2 µM | > 95.4 µM | 15.4 | > 57.5 µM | 10.8 µM | > 100 µM | 1.89 | 6.96 µM | 5.62 | > 86.5 | 7.72 | > 100 µM | 4.63 µM | > 64.8 µM | 12 µM | > 93 µM | 17 | > 100 µM | 2.42 µM | 7.34 µM
COc1cc2c3c(n(CCCCNC(=O)OCC4c5ccccc5-c5ccccc54)c(=O)c2cc1OC)-c1cc2c(cc1C3=O)OCO2 | 5.8 µM | 50.4 µM | 49.9 | > 100 µM | 5.62 µM | 34 µM | 11.1 | > 100 µM | 58.1 | > 100 | 6.7 | > 100 µM | 6.42 µM | 37.6 µM | 10.7 µM | 93 µM | 28.9 | > 100 µM | > 100 µM | > 100 µM
Cc1nc(N)sc1N=Nc1cc(Cl)c([N+](=O)[O-])cc1Cl | – | 55.9 µM | – | > 100 µM | – | 65 µM | – | 35.5 µM | – | 70.4 | – | 88.5 µM | – | 41.8 µM | – | 56.1 µM | – | 30.5 µM | – | 44.7 µM
Cc1cc(NCCCCNc2ccnc3cc(Cl)ccc23)nc(Nc2ccc(C(=O)N3CCCC3)cc2)n1 | 3.6 µM | 11.3 µM | 1.81 | 3.56 µM | 2.21 µM | 4.74 µM | 2.16 | 4.87 µM | 16.4 | 72.8 | 2.1 | 6.21 µM | 1.74 µM | 3.54 µM | 2.85 µM | 11.4 µM | 1.91 | 3.76 µM | 2.09 µM | 4.19 µM
Oc1ccc2ccccc2c1C(c1ccc(Cl)cc1)c1c(O)ccc2ccccc12 | – | 15.4 µM | – | 4.49 µM | – | 16 µM | – | 5.17 µM | – | 9.46 | – | 7.26 µM | – | 31.4 µM | – | 9.72 µM | – | 10.8 µM | – | 15.9 µM
CC(C)=CCc1ccc(O)c(=O)cc1C(C)C | 0.484 µM | > 100 µM | 3.27 | > 100 µM | 0.685 µM | > 100 µM | 1.22 | 69.9 µM | 0.336 | 2.74 | 0.671 | > 100 µM | 0.764 µM | > 41.1 µM | 0.844 µM | > 100 µM | 2.88 | > 100 µM | 1.59 µM | > 100 µM
O=C(CC(O)c1ccncc1)c1ccccc1 (centres undefined) | 25.9 µM | > 100 µM | 16.5 | 31.2 µM | 31.7 µM | > 100 µM | 29.4 | 99.3 µM | 29.8 | > 100 | 37.1 | > 100 µM | 19.5 µM | 48.3 µM | 29.8 µM | > 100 µM | 17.8 | > 100 µM | 23.8 µM | 80.4 µM
COc1cc(C(=O)N2CCN(c3ccccc3OC)CC2)c(N)cc1OCc1ccccc1 | 32.4 µM | > 100 µM | 59.4 | > 100 µM | 34.4 µM | > 100 µM | 25.9 | 80.6 µM | 33.5 | > 100 | 43.8 | > 100 µM | 45.3 µM | > 100 µM | 30.5 µM | > 100 µM | 42.6 | > 100 µM | 39 µM | > 100 µM
CCCC(=O)Nc1cc([N+](=O)[O-])c([N+](=O)[O-])cc1OC | – | 26.5 µM | – | 30.9 µM | – | 28.1 µM | – | 27.6 µM | – | > 100 | – | 34.6 µM | – | 37.8 µM | – | 29.5 µM | – | 30.3 µM | – | 35.4 µM
NC(N)=N/N=C(/c1ccccc1)c1ccc(Cl)cc1 | 40.6 µM | > 100 µM | 14.4 | > 100 µM | 30.4 µM | > 100 µM | 12.5 | 71.1 µM | 24.4 | 85.9 | 8.44 | > 100 µM | 18.8 µM | 53.5 µM | 27.4 µM | > 100 µM | 6.17 | 70.2 µM | > 100 µM | > 100 µM
N#CCC12CC=CCC1=C(O)C(=O)c1ccc(O)cc12 (centres undefined) | – | > 100 µM | – | > 100 µM | – | > 100 µM | – | > 100 µM | – | > 100 | – | > 100 µM | – | > 100 µM | – | > 100 µM | – | > 100 µM | – | > 100 µM
c1ccc2c(Nc3ccc(Oc4ccc(Nc5c6ccccc6nc6ccccc56)cc4)cc3)c3ccccc3nc2c1 | 0.0309 µM and 0.133 µM | 0.101 µM and 0.26 µM | 1.52 | 3.65 µM and 2.45 µM | 0.301 µM and 1.74 µM | 1.09 µM and 3.12 µM | 0.205 | 1.97 µM and 0.44 µM | – | 0.156 | 0.758 | 2.81 µM and 4.88 µM | 2.1 µM and 1.65 µM | 3.91 µM and 3.32 µM | 0.213 µM and 0.375 µM | 0.651 µM and 1.69 µM | 1.59 | 3.98 µM and 1.45 µM | 1.73 µM and 0.245 µM | 3.2 µM and 0.524 µM
Cn1c(=O)c2[nH]c(C3CC(=O)CC(c4nc5c([nH]4)c(=O)n(C)c(=O)n5C)N3)nc2n(C)c1=O (centres undefined) | – | > 100 µM | – | > 100 µM | – | > 100 µM | – | > 100 µM | – | > 100 | – | > 100 µM | – | > 100 µM | – | > 100 µM | – | > 100 µM | – | > 100 µM
